Test results from PubChem BioAssay AID1845196 (Molecular Pharmacology Branch, DTP, NCI, 2023).

Tested on: 292921-168-R tumor spheroid viability
Experiment: Anticancer human tumor 292921-168-R patient-derived pancreatic carcinoma cell line growth inhibition
Details: spheroids with HUVEC and MSC; for IC50: curve of first compound; for viability, T/C: stronger effect = lower value
Text: Multicellular complex tumor spheroid response to DNA repair inhibitors in combination with DNA-damaging drugs
This study explores the anticancer activities of DNA-damaging drugs and inhibitors of DNA damage repair, both as single agents and in combinations. Complex tumor spheroids comprised of malignant cells, endothelial cells and mesenchymal stem cells served as an in vitro model for human solid tumors. This model system incorporates physiologically relevant features and patient-derived or established malignant cell lines with clinically relevant genetic alterations from many tumor types. Twenty-six patient-derived or established malignant cell lines were evaluated representing sarcoma, melanoma, small cell lung cancer (SCLC), non-small cell lung cancer (NSCLC), as well as bladder, ovarian and pancreatic cancers. The concentration ranges selected for each drug and investigational agent were based upon clinically achievable concentrations if the clinical Cmax of the agent was known.
Compounds. The drugs and compounds olaparib (NSC753686), talazoparib (NSC767125), berzosertib (NSC777718), elimusertib (NSC800525), nedisertib (NSC802822), VX-984 (NSC792969), AZD-1390 (NSC803789), temozolomide (NSC362856), topotecan (NSC609699), trabectedin (NSC813783), staurosporine (NSC755774), and gemcitabine (NSC613327) were obtained from the National Cancer Institute (NCI) Developmental Therapeutics Program Chemical Repository. The FDA-approved anticancer drug set is available from the Developmental Therapeutics Program at https://dtp.cancer.gov/organization/dscb/obtaining/available_plates.htm. […] The stock solutions were prepared in dimethyl sulfoxide (DMSO, Sigma-Aldrich, St. Louis, MO, cat. D2650) at 400-fold the tested concentration and stored at -70 degrees C. Prior to their use, the stock solutions were diluted in fresh medium and the final DMSO concentration in the assay was 0.25% (v/v). All drugs and investigational agents were tested over a range starting from a high concentration at or near the clinical Cmax and decreasing in half-log increments. If the clinical Cmax for an agent had not been determined, the highest concentration tested was 10 microM.
Cell Lines. The patient-derived cancer cell (PDC) lines: 156681-154-R-J1-PDC, 283228-195-R-J1-PDC, 287954-098-R-J1-PDC, 292921-168-R-J2-PDC, 349418-098-R-PDC, 425362-245-T-J1-PDC, 556581-035-R-J1-PDC, and BL0293-F563-PDC were received from the NCI Patient-Derived Models Repository (PDMR, https://pdmr.cancer.gov). The established cell lines HS-SY-2 (RRID:CVCL_8719), MPNST, and SYO-1 (RRID:CVCL_7146) were obtained from the Sloan Kettering Institute. The alveolar soft parts sarcoma cell line ASPS-1 (RRID:CVCL_S738) was established at the NCI and grown from internal seed stocks. The following established cell lines were purchased from the American Type Culture Collection (ATCC, Manassas, VA): G-401 (ATCC, cat. CRL-1441, RRID:CVCL_0270), SW982 (ATCC, cat. HTB-93, RRID:CVCL_1734), VA-ES-BJ (ATCC, cat. CRL-2138, RRID:CVCL_1785), NCI-H719 (ATCC, cat. CRL-5837, RRID:CVCL_1582), NCI-H196 (ATCC, cat. CRL-5823, RRID:CVCL_1509), NCI-H841 (ATCC, cat. CRL-5845, RRID:CVCL_1595), NCI-H1618 (ATCC, cat. CRL-5879, RRID:CVCL_1480), NCI-H1876 (ATCC, cat. CRL-5902, RRID:CVCL_1503), DMS 114 (ATCC, cat. CRL-2066; RRID:CVCL_1174), NCI-H211 (ATCC, cat. CRL-5824; RRID:CVCL_1529), and SW 1271 (ATCC, cat. CRL-2177, RRID:CVCL_1716). The small cell lung cancer cell line COR-L88 was purchased from Sigma-Aldrich (cat. 92031917-1VL, RRID:CVCL_1141). The non-small cell lung cancer cell lines NCI-H226 (RRID:CVCL_1544) and NCI-H322M (RRID:CVCL_1557) were established at the NCI and grown from internal seed stocks. Pooled donor human umbilical vein endothelial cells (HUVEC, Lonza, cat. CC-2519) and human mesenchymal stem cells (hMSC, Lonza, cat. PT-2501) were purchased from Lonza (Walkersville, MD).
Cell Culture. All cells were maintained in an incubator at 37 degrees C and 5% CO2 with 95% humidity. […]
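Also: spheroids exposed to compounds for 7 days.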

In the case of COc1ccc([C@@H](O)c2cc(-c3ncnc4cc(N5CCOCC5)ccc34)c(F)cc2Cl)nn1 + CC[C@@]1(O)C(=O)OCc2c1cc1n(c2=O)Cc2cc3c(CN(C)C)c(O)ccc3nc2-1, the IC50 (second compound 0.003 µM) is reported as 1350 nM, the IC50 (second compound 0.00949 µM) is reported as 974 nM and the IC50 (second compound 0.03 µM) is reported as under 31.6 nM. It also gave an IC50 (second compound 0.0949 µM) of under 31.6 nM, an IC50 (second compound 0.3 µM) of under 31.6 nM and a viability, T/C (second compound 0.003 µM, first compound 0.0316 µM) of 102%. The viability, T/C (second compound 0.003 µM, first compound 0.1 µM) was 94.4%, the viability, T/C (second compound 0.003 µM, first compound 0.316 µM) was 77.8% and the viability, T/C (second compound 0.003 µM, first compound 1 µM) was 55.3%. The viability, T/C (second compound 0.003 µM, first compound 3.16 µM) was 34.8%, the viability, T/C (second compound 0.003 µM, first compound 10 µM) was 20.8% and the viability, T/C (second compound 0.00949 µM, first compound 0.0316 µM) was 77.5%. For the same molecule, the viability, T/C (second compound 0.00949 µM, first compound 0.1 µM) was 74.5%, the viability, T/C (second compound 0.00949 µM, first compound 0.316 µM) was 71.9% and the viability, T/C (second compound 0.00949 µM, first compound 1 µM) was 45.6%. It also gave a viability, T/C (second compound 0.00949 µM, first compound 3.16 µM) of 32.9%, a viability, T/C (second compound 0.00949 µM, first compound 10 µM) of 17.9% and a viability, T/C (second compound 0.03 µM, first compound 0.0316 µM) of 41.8%. The viability, T/C (second compound 0.03 µM, first compound 0.1 µM) was 38.7%, the viability, T/C (second compound 0.03 µM, first compound 0.316 µM) was 34.5% and the viability, T/C (second compound 0.03 µM, first compound 1 µM) was 25.8%. The viability, T/C (second compound 0.03 µM, first compound 3.16 µM) was 21.5%, the viability, T/C (second compound 0.03 µM, first compound 10 µM) was 17.1% and the viability, T/C (second compound 0.0949 µM, first compound 0.0316 µM) was 10.8%. It also gave a viability, T/C (second compound 0.0949 µM, first compound 0.1 µM) of 12%, a viability, T/C (second compound 0.0949 µM, first compound 0.316 µM) of 12.5% and a viability, T/C (second compound 0.0949 µM, first compound 1 µM) of 13.2%. It also gave a viability, T/C (second compound 0.0949 µM, first compound 3.16 µM) of 14.5%, a viability, T/C (second compound 0.0949 µM, first compound 10 µM) of 13.8% and a viability, T/C (second compound 0.3 µM, first compound 0.0316 µM) of 3.98%. The viability, T/C (second compound 0.3 µM, first compound 0.1 µM) was 3.78%, the viability, T/C (second compound 0.3 µM, first compound 0.316 µM) was 4.06% and the viability, T/C (second compound 0.3 µM, first compound 1 µM) was 4.72%. It also gave a viability, T/C (second compound 0.3 µM, first compound 3.16 µM) of 6.62% and a viability, T/C (second compound 0.3 µM, first compound 10 µM) of 8.28%.
